Test results as given in PMC10208570, “Peptidomimetic antibiotics disrupt the lipopolysaccharide transport bridge of drug-resistant Enterobacteriaceae” (Science Advances, 2023).
Values after ≈ are worked out from the molar mass of the structure shown. Where a SMILES comes first, the peptide text is derived from it. Bridges are numbered along the chain shown (N, C = ends). [ ]: non-standard residue; d: D form. The star is where a group is joined. Val(Nα-amidino) = CC(C)[C@H](NC(=N)N)C(=O)*; Hyp = O=C(O)[C@@H]1C[C@@H](O)CN1; Pen = CC(C)(S)[C@H](N)C(=O)O; dDab = NCC[C@@H](N)C(=O)O; Dab = NCC[C@H](N)C(=O)O

How the values were obtained:
Serratia marcescens = conditions: CLSI microdilution method; LptA sequence identity 64
Experimental: (§1) MIC assays [Clinical and Laboratory Standards Institute (CLSI) methodology] and serial passage studies were performed as described by Luther et al. ([6]). […] Resistant mutants were isolated, and their MIC values were determined and sent to Microbes NG (Birmingham, United Kingdom) for whole-genome sequencing and bioinformatic analysis.

Providencia stuartii = conditions: CLSI microdilution method; LptA sequence identity 55
Experimental: as §1

[1] = system: Stenotrophomonas maltophilia; conditions: CLSI microdilution method; LptA sequence identity 25
Experimental: as §1

Morganella morganii = conditions: CLSI microdilution method; LptA sequence identity 57
Experimental: as §1

Providencia rettgeri = conditions: CLSI microdilution method; LptA sequence identity 54
Experimental: as §1

Pantoea agglomerans = conditions: CLSI microdilution method; LptA sequence identity 69
Experimental: as §1

Shigella flexneri = conditions: CLSI microdilution method; LptA sequence identity 100
Experimental: as §1

Hafnia alvei = conditions: CLSI microdilution method; LptA sequence identity 72
Experimental: as §1

Enterobacter cloacae = conditions: CLSI microdilution method; LptA sequence identity 86
Experimental: as §1

Klebsiella pneumoniae = conditions: CLSI microdilution method; LptA sequence identity 88
Experimental: as §1

Escherichia coli = conditions: CLSI microdilution method; LptA sequence identity 100
Experimental: as §1

Raoultella planticola = conditions: CLSI microdilution method; LptA sequence identity 84
Experimental: as §1

[2] = Tolerability (single day, IV bolus q12h); type: in vivo, CD-1 mice; conditions: for Tolerability (IV bolus, q12h): mice died: single day
Experimental: Two different study designs were used to determine the potential toxicity of these compounds, when given BID via intravenous bolus (injection) 12 hours apart to CD-1 mice. In the first type of study, male mice were dosed on a single day at three escalating dose levels (three mice per group), while the second type of study male mice (nine mice per group) were dosed for seven consecutive days with the same administration regimen (q12h). […] Detailed clinical observations were conducted up to at least 3 hours after the first daily dosing and up to at least 1 hour after the second daily dosing. In addition, the Irwin battery of tests was used to assess the mice neurobiological and physiological state during the single day study at 30, 60, 120, 180, and 240 min after the first administration. The following parameters were included in the observations: occurrence of abnormal gait, catalepsy, piloerection, abnormal respiration, increase or decrease in spontaneous activity, spontaneous activity following audible stimuli (tapping on side of cage), touch response, and body tonus. Any additional symptoms observed were also reported.

Plasma protein binding = type: in vitro ADME, human; conditions: mass balance method, ultrafiltration 30-kDa cutoff; pooled human plasma adjusted to pH 7.5; 10 mg/liter; 30 min at 37°C; biological replicates; read-out: Plasma protein binding (% bound) Human (converted)
Experimental: After ultrafiltration, protein binding was determined by subtracting the percentage of compound in ultrafiltrate from the total amount of compound in spiked plasma (table S4A).

LptAmQ62L, D33A = molecular target: T1, LptAmQ62L, D33A (Escherichia coli, UniProt P0ADV1, D33A/Q62L); assay: FP indirect (competition) binding assay; design: species or system E. coli
T1 construct: His6-GB1 (N, cleaved yes); made in house; host or cells: E. coli BL21 (DE3)
T1 sequence (P0ADV1 28-159 D33A/Q62L): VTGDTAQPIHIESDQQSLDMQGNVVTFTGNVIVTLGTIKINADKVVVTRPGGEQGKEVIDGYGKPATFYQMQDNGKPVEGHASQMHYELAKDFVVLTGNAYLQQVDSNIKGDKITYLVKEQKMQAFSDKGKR
Experimental: Protein stocks were purified and concentrated in buffer 1 [50 mM Na-Pi (pH 7) and 150 mM NaCl] and, if necessary, diluted to desired concentrations using buffer 2 [50 mM Na-Pi (pH 7), 150 mM NaCl, and 0.05% Tween 20]. Peptide stocks and fluorescently labeled peptide stocks were made in buffer 2. Every serial dilution consisted of 24 wells, the first well with the highest concentrate and the last well (well 24) with the lowest. First, 50 μl of buffer 2 was added to the wells 2 to 24 of each serial dilution. Then, 100 μl of concentrated unlabeled peptide/protein in their respective buffers was added to the first well. Fifty microliters were taken from the first well and added to the second well for a 1:1 serial dilution and continued for the 24 wells. […] Plates were covered with adhesive seals and left to incubate overnight at 4°C before FP measurements the next day. Anisotropy was measured using the Tecan Safire2 plate reader using a 10-nm bandwidth and setting the excitation and emission wavelengths to 635 and 670 nm, respectively. The G-factor (G) was also determined empirically as 1.094 for the instrument and included in all the anisotropy calculations.
For the indirect binding assays, r was calculated in the same manner as the direct binding assays. […] The control was subtracted from r to yield r′. Data were fit to a sigmoidal interpolation model on GraphPad Prism 9, and an IC50 was generated for each unlabeled peptide or protein measured.

[3] = system: Klebsiella pneumoniae NCTC 13443 LptA I36S mutant; assay: microbe, parasite or virus in culture; conditions: Table S9 panel
How it was run: (§2)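 MICs were determined by CLSI methodology. Serial passage studies were also run, and resistant mutants isolated from them were re-tested for MIC and then characterised by whole-genome sequencing.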

[4] = system: Klebsiella pneumoniae ATCC 43816 LptA L116Q mutant; assay: microbe, parasite or virus in culture; conditions: Table S9 panel
How it was run: as §2

[5] = system: Klebsiella pneumoniae ATCC 43816 PglJ, PhnJ, ThiH mutant; assay: microbe, parasite or virus in culture; conditions: Table S9 panel; other mutation
How it was run: as §2

[6] = system: Klebsiella pneumoniae ATCC 43816 LptA I36S mutant; assay: microbe, parasite or virus in culture; conditions: Table S9 panel
How it was run: as §2

[7] = system: K. pneumoniae ATCC 43816 LptA Q62L mutant; assay: microbe, parasite or virus in culture; conditions: Table S9 panel
How it was run: as §2

[8] = system: Klebsiella pneumoniae NCTC 13443 LpxC, LpxD mutant; assay: microbe, parasite or virus in culture; conditions: Table S9 panel; other mutation
How it was run: as §2

[9] = system: Escherichia coli ATCC 25922 LptA E84D mutant; assay: microbe, parasite or virus in culture; conditions: Table S9 panel
How it was run: as §2

[10] = system: Klebsiella pneumoniae ATCC 43816 LapB mutant; assay: microbe, parasite or virus in culture; conditions: Table S9 panel; other mutation
How it was run: as §2

[11] = system: Klebsiella pneumoniae NCTC 13443 YejM mutant; assay: microbe, parasite or virus in culture; conditions: Table S9 panel; other mutation
How it was run: as §2

[12] = system: Escherichia coli ATCC 25922 KdsD mutant; assay: microbe, parasite or virus in culture; conditions: Table S9 panel; other mutation
How it was run: as §2

[13] = system: Klebsiella pneumoniae ATCC 43816 LptA I36N mutant; assay: microbe, parasite or virus in culture; conditions: Table S9 panel
How it was run: as §2

Q: With `CC[C@H](C)[C@H](NC(=O)[C@@H]1C[C@@H](O)CN1C(=O)[C@@H](N)C(C)C)C(=O)N[C@H](C(=O)N[C@@H](Cc1ccc(O)cc1)C(=O)N[C@@H]1C(=O)N[C@@H](CC(N)=O)C(=O)N[C@@H](CCCNC(=N)N)C(=O)N[C@@H](CCN)C(=O)N[C@@H]([C@@H](C)O)C(=O)N[C@H](CCN)C(=O)N[C@@H](CCCCN)C(=O)N[C@H](C(=O)N[C@@H](CCN)C(=O)N[C@@H](CCCNC(=N)N)C(=O)N[C@@H](Cc2ccc(O)cc2)C(=O)O)CSSC1(C)C)[C@@H](C)O` [Compound 6] (H-V[Hyp]ITY[Pen]NR[Dab]T[dDab]KC[Dab]RY-OH; disulfide 6-13) as the molecule, how does the “MIC Serratia marcescens” value (Serratia marcescens) read?
A: Its value is over 8 µg/mL.

Q: What about the “MIC Providencia stuartii” value (Providencia stuartii) of the same molecule?
A: Its value is over 8 µg/mL.

Q: What about the “MIC Stenotrophomonas maltophilia” value [1] of the same molecule?
A: The value was over 8 µg/mL.

Q: And the “MIC Morganella morganii” value (Morganella morganii)?
A: Its value is over 8 µg/mL.

Q: And the “MIC Providencia rettgeri” value (Providencia rettgeri)?
A: The value was over 8 µg/mL.

Q: What about the “MIC Pantoea agglomerans” value (Pantoea agglomerans) of the same molecule?
A: The value was 4 µg/mL (≈ 2.04 µM).

Q: What about the “MIC Shigella flexneri” value (Shigella flexneri) of the same molecule?
A: The value was 0.03 µg/mL (≈ 0.0153 µM).

Q: And the “MIC Hafnia alvei” value (Hafnia alvei)?
A: The value was 2 µg/mL (≈ 1.02 µM).

Q: And the “MIC Enterobacter cloacae” value (Enterobacter cloacae)?
A: The value was 0.13 µg/mL (≈ 0.0663 µM).

Q: And the “MIC Klebsiella pneumoniae” value (Klebsiella pneumoniae)?
A: The value was 0.13 µg/mL (≈ 0.0663 µM).

Q: And the “MIC Escherichia coli” value (Escherichia coli)?
A: Its value is 0.03 µg/mL (≈ 0.0153 µM).

Q: And the “MIC Raoultella planticola” value (Raoultella planticola)?
A: Its value is 0.06 µg/mL (≈ 0.0306 µM).

Q: What about the “Tolerability (IV bolus, q12h): mice died” value ([2]; at 40 mg/kg/day q12h) of the same molecule?
A: Its value is 0/3.

Q: What about the fraction unbound at 30 min, 10 mg/liter (Plasma protein binding) of the same molecule?
A: Its fraction unbound at 30 min, 10 mg/liter is 0.38.

Q: Which IC50 (LptAmQ62L, D33A) does the source give for `CC[C@H](C)[C@H](NC(=O)[C@@H]1C[C@@H](O)CN1C(=O)[C@@H](NC(=N)N)C(C)C)C(=O)N[C@H](C(=O)N[C@@H](Cc1ccc(O)cc1)C(=O)N[C@@H]1C(=O)N[C@@H](CC(N)=O)C(=O)N[C@@H](CCCNC(=N)N)C(=O)N[C@@H](CCN)C(=O)N[C@@H]([C@@H](C)O)C(=O)N[C@H](CCN)C(=O)N[C@@H](CCCCN)C(=O)N[C@H](C(=O)N[C@@H](CCN)C(=O)N[C@@H](CCCNC(=N)N)C(=O)N[C@@H](Cc2ccc(O)cc2)C(=O)O)CSSC1(C)C)[C@@H](C)O` [Compound 7] ({Val(Nα-amidino)}-[Hyp]ITY[Pen]NR[Dab]T[dDab]KC[Dab]RY-OH; disulfide 5-12) here?
A: The IC50 was 23.2 ± 10 nM.

Q: What about the Ki (LptAmQ62L, D33A) of the same molecule?
A: The Ki was 17 ± 7.3 nM.

Q: And the “MIC Klebsiella pneumoniae NCTC 13443 LptA I36S (2x)” value [3]?
A: The value was 8 µg/mL (≈ 4 µM).

Q: And the “MIC Klebsiella pneumoniae ATCC 43816 LptA L116Q (1x)” value [4]?
A: Its value is 2 µg/mL (≈ 0.999 µM).

Q: And the “MIC Klebsiella pneumoniae ATCC 43816 PglJ, PhnJ, ThiH (1x)” value [5]?
A: Its value is 0.5 µg/mL (≈ 0.25 µM).

Q: What about the “MIC Klebsiella pneumoniae ATCC 43816 LptA I36S (1x)” value [6] of the same molecule?
A: The value was 2 µg/mL (≈ 0.999 µM).

Q: And the “MIC Klebsiella pneumoniae ATCC 43816 LptA Q62L (4x)” value [7]?
A: Its value is 8 µg/mL (≈ 4 µM).

Q: What about the “MIC Klebsiella pneumoniae NCTC 13443 LpxC, LpxD (1x)” value [8] of the same molecule?
A: Its value is 1 µg/mL (≈ 0.5 µM).

Q: And the “MIC Escherichia coli ATCC 25922 LptA E84D (1x)” value [9]?
A: Its value is 1 µg/mL (≈ 0.5 µM).

Q: And the “MIC Klebsiella pneumoniae ATCC 43816 LapB (1x)” value [10]?
A: Its value is 0.5 µg/mL (≈ 0.25 µM).

Q: What about the “MIC Klebsiella pneumoniae NCTC 13443 YejM (1x)” value [11] of the same molecule?
A: Its value is 2 µg/mL (≈ 0.999 µM).

Q: And the “MIC Escherichia coli ATCC 25922 KdsD (2x)” value [12]?
A: Its value is 0.5 µg/mL (≈ 0.25 µM).

Q: And the “MIC Klebsiella pneumoniae ATCC 43816 LptA I36N (1x)” value [13]?
A: Its value is 2 µg/mL (≈ 0.999 µM).

Q: And the “MIC Serratia marcescens” value (Serratia marcescens)?
A: The value was over 8 µg/mL.

Q: And the “MIC Providencia stuartii” value (Providencia stuartii)?
A: Its value is over 8 µg/mL.

Q: And the “MIC Stenotrophomonas maltophilia” value [1]?
A: The value was over 8 µg/mL.

Q: And the “MIC Morganella morganii” value (Morganella morganii)?
A: The value was over 8 µg/mL.

Q: What about the “MIC Providencia rettgeri” value (Providencia rettgeri) of the same molecule?
A: The value was over 8 µg/mL.

Q: What about the “MIC Pantoea agglomerans” value (Pantoea agglomerans) of the same molecule?
A: Its value is over 8 µg/mL.

Q: And the “MIC Shigella flexneri” value (Shigella flexneri)?
A: The value was 0.06 µg/mL (≈ 0.03 µM).

Q: What about the “MIC Hafnia alvei” value (Hafnia alvei) of the same molecule?
A: Its value is 4 µg/mL (≈ 2 µM).

Q: And the “MIC Enterobacter cloacae” value (Enterobacter cloacae)?
A: Its value is 0.5 µg/mL (≈ 0.25 µM).

Q: And the “MIC Klebsiella pneumoniae” value (Klebsiella pneumoniae)?
A: The value was 0.25 µg/mL (≈ 0.125 µM).

Q: And the “MIC Escherichia coli” value (Escherichia coli)?
A: Its value is 0.06 µg/mL (≈ 0.03 µM).

Q: What about the “MIC Raoultella planticola” value (Raoultella planticola) of the same molecule?
A: The value was 0.25 µg/mL (≈ 0.125 µM).

Q: What about the “Tolerability (IV bolus, q12h): mice died” value ([2]; at 30 mg/kg/day q12h) of the same molecule?
A: The value was 0/3.

Q: And the “Tolerated dose, intravenous BID” value ([2]; mice, intravenous, twice a day (q12h))?
A: Its value is “up to 30 mg/kg per day”.

Q: What about the fraction unbound at 30 min, 10 mg/liter (Plasma protein binding) of the same molecule?
A: Its fraction unbound at 30 min, 10 mg/liter is 0.19.
